The values below come from PubChem BioAssay AID1996.

Values after ≈ are worked out from the molar mass of the structure shown. Where only a bound is given, the exact number is not on record here.

For the data set the following is noted: buffer; pH 7.4; 200.0 µM.
`Cc1cc2c(SCC(=O)NC3CCCCC3)ncnc2s1`: the solubility (kinetic) was 4.4 µg/mL (≈ 13.7 µM).
The result for `O=C1CC(NC(=O)C(F)(F)F)c2cc3c(cc21)OCO3` (stereo unspecified) reads 42.3 µg/mL (≈ 147 µM); that for `CCOc1ccc(C(=O)O/N=C(\N)c2ccccn2)cc1`, 5.2 µg/mL (≈ 18.2 µM).
In the case of `c1ccc(-c2csc3ncnc(NCc4ccccn4)c23)cc1`, the solubility (kinetic) was 40.1 µg/mL (≈ 126 µM).
The result for `Cc1ccc(NC(=S)N2CC(C)OC(C)C2)cc1C` (stereo unspecified) reads more than 41.8 µg/mL; that for `CNC(=O)c1cc(C(=O)c2ccc(Cl)cc2)c[nH]1`, 10.5 µg/mL (≈ 40 µM).
Then `Cc1ccc2oc(=O)n(Cc3ccc(F)cc3)c2c1`, with 2 µg/mL (≈ 7.77 µM); and `CN1CCC(N(C)S(=O)(=O)c2ccc(Cl)cc2)CC1`, with more than 45.4 µg/mL; and `CCC(CC)c1nc2ccccc2c(=O)[nH]1`, with more than 32.4 µg/mL.
Consider `CN(C)CC/C=C1/c2ccc(F)cc2Sc2ccc(Cl)cc21.Cl`, for which the kinetic solubility was determined as 26.1 µg/mL.
Then `Cc1ccccc1CNC(=O)C1CCC(=O)N(C2CC2)C1` (stereo unspecified), with 36.8 µg/mL (≈ 129 µM); and `COC(=O)c1ccc(NC(=O)CSc2nc3ncccc3[nH]2)cc1`, with 3.5 µg/mL (≈ 10.2 µM); and `COc1cccc(NC(=S)N(CCN(C)C)Cc2cccs2)c1`, with 41.6 µg/mL (≈ 119 µM).
In the case of `O=C(O)CCC(=O)NCc1c(Cl)cccc1Sc1ccc(Cl)cc1`, the solubility (kinetic) was 38.3 µg/mL (≈ 99.7 µM).
Then `CC1SC(=S)N(c2ccc(N(C)C)cc2)C1=O` (stereo unspecified), with 5.7 µg/mL (≈ 21.4 µM); and `CC1CCCCC12NC(=O)N(CC(=O)OCc1ccccc1F)C2=O` (stereo unspecified), with 17.2 µg/mL (≈ 49.4 µM).
Then `CC(=O)c1sc(Nc2cccc3ccccc23)nc1C.Cl`, with 5.2 µg/mL; and `Cc1cccc(NC(=O)Cn2cnc3c(oc4ccccc43)c2=O)c1`, with less than 0.2 µg/mL.
Then `CC(=O)C(C(c1ccccc1)c1c[nH]c2ccccc12)[N+](=O)[O-]` (stereo unspecified), with 29.1 µg/mL (≈ 94.4 µM).
As to `O=C(Nc1cc(Cl)ccc1N1CCOCC1)c1cccnc1`, the kinetic solubility is more than 47.7 µg/mL.
The result for `N#C/C(=C\c1ccncc1)c1ccccn1` reads more than 31.1 µg/mL.
Consider `CC(=O)c1ccccc1NS(=O)(=O)c1cccc2nonc12`, for which the kinetic solubility turned out to be 0.9 µg/mL (≈ 2.84 µM).
The compound `O=S(=O)(NCc1cccs1)c1ccccc1Cl` gave a solubility (kinetic) of more than 43.2 µg/mL.
As for `COc1ccc(CNc2nc(Cl)c(C#N)s2)cc1`, the kinetic solubility came out at 1.1 µg/mL (≈ 3.93 µM).
`Cn1c(/C=C/c2cccc(Br)c2)nc2ccccc2c1=O` displayed a kinetic solubility of 0.7 µg/mL (≈ 2.05 µM).
In turn, `CN1CCC(N(C)C(=S)Nc2ccc(F)cc2)CC1` came in with a solubility (kinetic) of more than 42.2 µg/mL.
Then `Cn1c(C2CCCCC2)nc2cc(N)ccc21`, with more than 34.4 µg/mL; and `Cl.O=C(CCN1CCOCC1)NNC(=O)c1ccc(Cl)c([N+](=O)[O-])c1`, with more than 59 µg/mL; and `O=C(OCCCN1CCOCC1)c1ccc(O)c(O)c1`, with more than 42.2 µg/mL.
Compound `Cc1cccc(NC(=O)COC(=O)CCc2ccccc2)c1C` displayed a solubility (kinetic) of 5.9 µg/mL (≈ 18.9 µM).
The result for `CC(=O)c1c(C)[nH]c(C(=O)OCc2cccc(C)c2)c1C` reads 4.2 µg/mL (≈ 14.7 µM).
`CCC(C)NC(=O)C1CC(=O)N(CCc2ccc(F)cc2)C1` (stereo unspecified): the kinetic solubility was more than 46 µg/mL.
The result for `COc1cccc(OC)c1C(=O)Nc1cccc(-c2nc3ccccc3[nH]2)c1` reads 11.1 µg/mL (≈ 29.7 µM); that for `Cc1cc(Sc2ncnc(N)c2[N+](=O)[O-])ncn1`, more than 39.6 µg/mL.
Then `CCC(C)c1ccc(C(C)NC(=S)NCc2ccc(F)cc2)cc1` (stereo unspecified), with less than 0.4 µg/mL; and `Cc1cc(C)c(S(=O)(=O)NC2CC(C)(C)NC(C)(C)C2)cc1C`, with 33.5 µg/mL (≈ 99 µM).
`CCOc1ccc(N2C(=O)CSC2=NC#N)cc1` showed a solubility (kinetic) of 38.3 µg/mL (≈ 147 µM).
In turn, `Cc1ccc(F)cc1S(=O)(=O)NCc1ccc(N2CCN(C)CC2)cc1` showed a solubility (kinetic) of 16 µg/mL (≈ 42.4 µM).
Then `CCOC(=O)COc1nc(C)cc(C(F)(F)F)c1C#N`, with 36 µg/mL (≈ 125 µM); and `Cc1cccc(NC(=S)NC2CC3C=CC2C3)c1` (stereo unspecified), with 6.2 µg/mL (≈ 24 µM); and `O=C(Nc1ccncc1)c1ccc(Br)cc1`, with more than 41.6 µg/mL.
Then `Cc1c(Cl)cccc1NC(=O)CNC(=O)c1ccc2c(c1)OCCO2`, with 18 µg/mL (≈ 49.9 µM); and `CCN(CC)C(=O)c1cc(Cl)ccc1NC(=O)c1ccco1`, with more than 48.1 µg/mL.
Then `COc1cc(S(=O)(=O)n2cnc3ccccc32)ccc1Br`, with more than 55.1 µg/mL; and `Fc1ccccc1NC(=S)Nc1ccc(CN2CCOCC2)cc1`, with 49.4 µg/mL (≈ 143 µM).
The compound `CCN1CCN(c2cc(=O)n3ccccc3n2)CC1` yielded a solubility (kinetic) of 32 µg/mL (≈ 124 µM).
In the case of `COc1ccc(NC(=O)c2ccc(Cl)cc2)c[n+]1[O-]`, the kinetic solubility is more than 41.8 µg/mL.
As to `N#CC(=C=[N-])c1nc2ccccc2nc1-[n+]1ccccc1`, the kinetic solubility came to 7.3 µg/mL (≈ 26.9 µM).
`NC(=O)NOCc1cccc(Cl)c1` had a solubility (kinetic) of more than 30.1 µg/mL.
The result for `COc1ccccc1N1CN(S(=O)(=O)c2ccc(C)cc2)c2nc3ccccc3nc21` reads 1 µg/mL (≈ 2.31 µM); that for `Cc1ccc(SCCSc2nc(N)cc(=O)[nH]2)cc1`, 6.7 µg/mL (≈ 22.8 µM).
Compound `N#C/C(=C\c1cccc(Oc2ccccc2)c1)C(=O)N1CCOCC1` gave a kinetic solubility of 42.5 µg/mL (≈ 127 µM).
The result for `CS(=O)(=O)c1ccc(Cl)c(NC(=O)CCNC(=O)c2ccco2)c1` reads 49.9 µg/mL (≈ 135 µM); that for `CCc1ccccc1NS(=O)(=O)c1cccc2nsnc12`, 44.8 µg/mL (≈ 140 µM); that for `Cc1ccc(C(=O)OCC(=O)Nc2ccc(F)c(Cl)c2)o1`, 2.9 µg/mL (≈ 9.3 µM).
The result for `FC(F)(F)c1cccc(NC(=S)N2CCCC2)c1` reads more than 41.1 µg/mL; that for `Cc1ccc(NC(CC(=O)c2ccccc2)C(=O)O)cc1Cl` (stereo unspecified), 10.2 µg/mL (≈ 32.1 µM); that for `C=CCn1c(SCC(=O)NCC)nc2sc3c(c2c1=O)CCC3`, 37.5 µg/mL (≈ 107 µM).
Consider `COC(=O)CCC(=O)N1CCCC(CO)(Cc2ccccc2F)C1` (stereo unspecified), for which the solubility (kinetic) is more than 50.6 µg/mL.
The result for `Cc1ccc(OCC(=O)NCCCNC(=O)c2ccco2)cc1` reads more than 47.5 µg/mL; that for `CCCS(=O)(=O)N1CCCC(C(=O)Oc2ccc(OC)cc2)C1` (stereo unspecified), 40.5 µg/mL (≈ 119 µM); that for `COc1cccc(N2CC(C)Cn3c2nc2c3c(=O)[nH]c(=O)n2C)c1` (stereo unspecified), 22.7 µg/mL (≈ 66.5 µM).
The result for `Cc1csc(SCC(=O)NC(=O)NC(C)C)n1` reads more than 41 µg/mL; that for `Nc1ccccc1S(=O)(=O)C(F)F`, 28.4 µg/mL (≈ 137 µM); that for `Cn1c(SCc2ccc(C#N)cc2)nnc1-c1ccncc1`, more than 46.1 µg/mL.
Then `CCOc1ccccc1/C=C/C(=O)N1CCN(C(=O)c2ccco2)CC1`, with more than 53.2 µg/mL; and `CC1CN=C(Nc2ccc(F)cc2)S1` (stereo unspecified), with more than 31.5 µg/mL.
`CC1CCCC(NC(=O)CSc2cccc[n+]2[O-])C1C` (stereo unspecified) yielded a kinetic solubility of more than 44.2 µg/mL.
The result for `Cc1ccc(CNc2cc(C(=O)O)ccc2Cl)s1` reads more than 42.3 µg/mL.
Then `CNc1ccc(Cl)cc1C(N)=O`, with more than 27.7 µg/mL.
Then `Cc1ccccc1N1C(=O)C2CCCN2C1=S` (stereo unspecified), with more than 36.9 µg/mL; and `CCN(C(=O)CSc1ncccc1C(=O)O)C1CCCCC1`, with more than 48.4 µg/mL.
Regarding `CCOc1ccc(NC(=S)NCc2nc3ccccc3[nH]2)cc1`, the kinetic solubility was determined as 46.6 µg/mL (≈ 143 µM).
Take `COc1ccccc1NC(=O)NNC(=O)CCN1CCOCC1`: the solubility (kinetic) is more than 48.4 µg/mL.
The result for `Cc1ccc(S(=O)(=O)N[C@H](C(=O)OCC(=O)NC(=O)NCc2ccco2)C(C)C)cc1` reads more than 67.7 µg/mL.
Consider `O=S(=O)(c1ccccc1)N1CCN(Cc2ccccc2)CC1`, for which the solubility (kinetic) is 0.5 µg/mL (≈ 1.58 µM).

In general, kinetic solubility refers to the concentration staying in solution when a stock, usually in DMSO, is diluted into the medium.
